Marks after values point to notes of the source that are not given here.
Columns and labels:
[1] = test system: bile duct-ligated (BDL) rats; test: Anti-fibrotic effect on bile duct-ligated liver fibrosis model; assay type: in vivo; conditions: for Body weight / Organ weight Liver / Organ weight Liver/Body / Organ weight Spleen / Organ weight Spleen/Body: mean ± S.E.
[2] = test system: BALB/c 4T1 xenografted mice; test: Anti-metastatic effect on BALB/c 4T1 xenografted mice model; assay type: in vivo; conditions: Example 3 13.6 or 27.3 mg/kg orally BID, four weeks; Example 2 5, 10, 20, or 40 mg/kg orally; Example 61 43.6 mg/kg intraperitoneally every other day, 2.5 weeks
Method: Female BALB/c mice were purchased from Orient Bio Inc. (Seoul, Korea). Animals were maintained in a temperature-controlled room (22° C.) and supplied with food and water ad libitum. 4T1 cells (1.2×10^4 cells) were suspended in PBS and implanted into the left #4 mammary fat pad of five to six-week-old female BALB/c mice (day 0). In Experiment 1, treatment was started after tumor implantation (day 0). […] In Experiment 2, treatment was started on day 4. […] In Experiment 3, treatment was started on day 4. […] In Experiment 4, 4T1 cells (1×10^4 cells) were suspended in PBS and implanted into the left #4 mammary fat pad of ten-week-old female BALB/c mice (day 0). Treatment was started on day 10. Example 61 (43.6 mg/kg) dissolved in saline was given to mice intraperitoneally every other day for 2.5 weeks. In all Experiments, mice were sacrificed at 24 to 72 h after the last dosing, and 15% India ink solution (Hardy Diagnostics) in PBS was immediately injected into the trachea. […] Number of metastatic nodule was counted on the surface of left lobe of lung, and picture of lung was taken with digital camera. The tumor size was measured using calipers, and the tumor volume was calculated by using the following equation: Tumor volume=(0.5236)×(width)^2×(length)
Either vehicle buffer (4 mM HCl, 1 mg/mL BSA) or TGF-β1 (50 ng/mouse) in vehicle buffer was given to mice intravenously at 2 h before mice were sacrificed. Tumor tissues from mice were lysed in RIPA buffer [50 mM Tris, pH 7.5, 150 mM NaCl, 0.1% sodium dodecyl sulfate, 0.5% sodium deoxycholate, 1% NP-40, 1 mM NaF, 1 mM Na3VO4, 1 mM PMSF, a protease inhibitor cocktail (1 tablet of Roche Diagnostics GmbH protease inhibitor cocktail/10 mL) (Roche)] for 20 min on ice. Lysates were cleared by centrifugation at 13000 rpm at 4° C. for 20 min. Protein content of supernatants was determined using Micro-BCA (bicinchoninic acid) protein assay kit (Thermo Scientific). Lysates containing 20-50 μg total protein were separated by electrophoresis on polyacrylamide gel and then electrophoretically transferred to polyvinylidene difluoride transfer membranes (Millipore, Billerica, Mass., USA). Membranes were blocked with 5% BSA (Sigma-Aldrich) in PBS containing 0.5% Tween-20 (PBST) for 1 h and incubated overnight at 4° C. with one of following antibodies: anti-phospho-Smad2 (Millipore), anti-Smad2/3 (BD Transduction Laboratories, NJ, USA), or anti-β-actin (Sigma-Aldrich) in PBST containing 1% BSA. […] Bound antibodies were detected using Western Blotting Luminol Reagent (SantaCruz Biotechnology). Band intensities were analyzed using a densitometer LAS-3000 imager (FUJIFILM, Tokyo, Japan).

[3] = test system: MMTV/c-Neu mice; test: Anti-metastatic effect on MMTV/c-Neu mice breast cancer model; assay type: in vivo; conditions: for β-casein mRNA expression level in the lung: 43.6 mg/kg intraperitoneally every other day, Example 61 three weeks, Example 3 ten weeks
Method: Anti-metastatic Effect on MMTV/c-Neu mice breast cancer model MMTV/c-Neu female transgenic mice were purchased from Jackson Laboratory (Bar Harbor, Me., USA). Animals were maintained in a temperature-controlled SPF room (22° C.) and supplied with food and water ad libitum. In Experiment 1, Example 61 (43.6 mg/kg) dissolved in saline was given to thirty two-week-old MMTV/c-Neu mice intraperitoneally every other day for three weeks. […] Mice were sacrificed at 24 h after the last dosing, and tissues of mammary tumor and lung were analyzed by hematoxylin and eosin (H&E) staining To analyse β-casein mRNA level in tissues of mammary tumor and lung, total RNAs were isolated from these tissues using TRIzol reagent (Invitrogen Corporation) and RNeasy Mini kit (Qiagen) according to the manufacturer's instruction. The cDNAs were synthesized from 2 μg of total RNAs using random primer (Invitrogen Corporation) by MMLV RTase (Invitrogen Corporation) for 1 h at 37° C. and subjected to PCR amplification using Taq polymerase (Promega) and following gene-specific primers: mouse GAPDH (forward) 5′-[…]-3′ and (reverse) 5′-[…]-3′, mouse β-casein (forward) 5′-[…]-3′ and (reverse) 5′-[…]-3′. Amplified DNA was analyzed by agarose gel electrophoresis.
Activity of MMP-9 and MMP-2 in the primary mammary tumor was measured by gelatin zymography. Tumor tissues from mice (30 mg) was lysed in 500 μL RIPA buffer (50 mM Tris, 150 mM NaCl, 0.1% sodium dodecyl sulfate, 0.5% sodium deoxycholate, 1% NP-40, protease inhibitor without EDTA) for 10-20 min on ice. Lysates were cleared by centrifugation at 13000 rpm at 4° C. for 10 min. Protein content of supernatants was determined using Micro-BCA protein assay kit (Thermo Scientific). Loading samples were prepared by adding loading buffer (0.5 M Tris, pH 6.8, 50% glycerol, 10% SDS, and 1% bromophenol blue solution) into lysates containing 15 μg of total protein. Loading samples were heated at 60° C. for 5 min and separated by electrophoresis on 10% polyacrylamide gel containing 0.2% gelatin. Gel was washed twice with washing buffer [2.5% Triton-X100, 0.05 M Tris-HCl, pH 7.5, and 0.1 M NaCl] for 30 min at room temperature. […] Gel image was obtained using a densitometer LAS-3000 imager (FUJIFILM) in cybergreen mode.

[4] = molecular target: ALK5 (Homo sapiens (Human), UniProt P36897); test: Cell-free assay for inhibition of ALK5 kinase phosphorylation; assay type: biochemical; conditions: read-out: IC50 on ALK5 kinase phosphorylation
Chain of ALK5 (P36897 34-503): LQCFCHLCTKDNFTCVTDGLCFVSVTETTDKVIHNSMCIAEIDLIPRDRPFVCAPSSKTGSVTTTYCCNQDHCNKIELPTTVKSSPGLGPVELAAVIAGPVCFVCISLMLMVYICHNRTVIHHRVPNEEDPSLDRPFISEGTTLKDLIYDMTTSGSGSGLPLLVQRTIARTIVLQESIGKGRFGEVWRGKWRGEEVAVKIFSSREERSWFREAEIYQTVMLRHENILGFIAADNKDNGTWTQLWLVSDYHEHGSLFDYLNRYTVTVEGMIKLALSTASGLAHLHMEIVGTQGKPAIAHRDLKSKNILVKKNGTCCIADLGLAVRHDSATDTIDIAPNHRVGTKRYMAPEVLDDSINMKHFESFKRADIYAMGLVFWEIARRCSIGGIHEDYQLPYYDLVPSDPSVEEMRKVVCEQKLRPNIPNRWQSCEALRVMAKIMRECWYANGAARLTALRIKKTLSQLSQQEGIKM
Method: ALK5 protein was expressed in Sf9 insect cells as human recombinant GST-fusion protein using the baculovirus expression system. Expressed protein was purified by affinity chromatography using GSH-agarose (Sigma-Aldrich). Kinase assay was performed in 96-well FlashPlates™ from Perkin Elmer (Boston, Mass., USA) in a 50 μL reaction volume. The reaction cocktail was pipetted in four steps in the following order: 20 μL of assay buffer (standard buffer), 5 μL of ATP solution in H2O, 5 μL of each test compounds of formula (I) in 10% DMSO, 10 μL of GSK3 (14-27) (200 ng)/10 μL of ALK5 solution (1 ng) (premixed). The reaction cocktail contained 60 mM HEPES-NaOH, pH 7.5, 3 mM MgCl2, 3 mM MnCl2, 3 Na3VO4, 1.2 mM DTT, 50 μg/mL PEG20000, 1 μM [γ-^33P]-ATP (approximately 2.5×10^5 cpm per well), 200 ng/10 μL GSK3 (14-27), and 1 ng/10 μL ALK5. The reaction cocktail was incubated at 30° C. for 60 min. The reaction was stopped with 50 μL of 2% (v/v) H3PO4, and plates were aspirated and washed two times with 200 μL 0.9% (w/v) NaCl. Assay was performed with a BeckmanCoulter Biomek 2000 robotic system. Incorporation of ^33Pi (counting of “cpm”) was determined with a microplate scintillation counter (Microbeta, Wallac).

[5] = test system: rats; conditions: cited from earlier work
[6] = test system: Tramp C2; conditions: mice treated with murine prostate cancer cell line Tramp C2; cited from earlier work
[7] = test system: UUO rats; conditions: cited from earlier work
[8] = test system: SBE-luc and GFAP-luc mice immunized with MOG35-55; conditions: cited from earlier work
[9] = BDL rats, 21.8 mg/kg orally three times per week for four weeks
[10] = BDL rats, 43.6 mg/kg orally three times per week for four weeks
[11] = Sham-operated rats, 43.6 mg/kg orally three times per week for four weeks
[12] = orally three times per week for four weeks, Example 2 5, 10, 20 mg/kg, Example 3 21.8, 43.6 mg/kg
[13] = orally three times per week for four weeks, Western blot
[14] = 43.6 mg/kg intraperitoneally every other day for ten weeks, gelatin zymography

In the case of Cc1cccc(-c2[nH]c(CNc3ccccc3F)nc2-c2ccc3ncnn3c2)n1.Cl [Example 3], the “Smad signaling in BDL rat liver (pSmad3)” value ([1]; 21.8 or 43.6 mg/kg orally three times per week for four weeks, Western blot) is reported as “inhibited”, the Body weight [1, 9] is reported as 340 ± 0.6 g and the “Organ weight Liver” value [1, 9] is reported as 16.4 ± 0.72**^,## g. For the same compound, the “Organ weight Liver/Body” value [1, 9] was 4.85 ± 0.26**^,## %, the “Organ weight Spleen” value [1, 9] was 1.30 ± 0.07 g and the “Organ weight Spleen/Body” value [1, 9] was 0.39 ± 0.03**^,## %. The Body weight [1, 10] was 335 ± 8.4 g, the “Organ weight Liver” value [1, 10] was 16.1 ± 0.57**^,## g and the “Organ weight Liver/Body” value [1, 10] was 4.84 ± 0.26**^,## %. The “Organ weight Spleen” value [1, 10] was 1.19 ± 0.09 g, the “Organ weight Spleen/Body” value [1, 10] was 0.36 ± 0.03**^,## % and the Body weight [1, 11] was 354 ± 12.2 g. The “Organ weight Liver” value [1, 11] was 11.8 ± 0.71 g, the “Organ weight Liver/Body” value [1, 11] was 3.34 ± 0.12% and the “Organ weight Spleen” value [1, 11] was 0.81 ± 0.04 g. The “Organ weight Spleen/Body” value [1, 11] was 0.23 ± 0.01%, the BDL-induced histological change ([1]; liver, H&E staining) was “greatly abolished” and the “body weight loss in BDL rats” value [1, 12] was “recovered”. The “organ (liver and spleen) weight in BDL rats” value [1, 12] was “decreased”, the “serum ALT in BDL rats” value [1, 12] was “improved” and the “serum AST in BDL rats” value [1, 12] was “improved”. The “fibronectin in BDL rat liver” value [1, 13] was “suppressed”, the “vimentin in BDL rat liver” value [1, 13] was “suppressed” and the “α-SMA in BDL rat liver” value [1, 13] was “suppressed”. For the same compound, the “number of metastastic nodules on the lung” value [2] was “significantly reduced”, the “activity of MMP-2 in the primary mammary tumor” value [3, 14] was “significantly inhibited” and the “activity of MMP-9 in the primary mammary tumor” value [3, 14] was “significantly inhibited”. The “β-casein mRNA expression level in the lung” value [3] was “significantly inhibited”.

In the case of Cc1cccc(-c2[nH]c(CNc3cccc(C#N)c3)nc2-c2ccc3ncnn3c2)n1.Cl [Example 61], the “number of metastastic nodules on the lung” value [2] is reported as “significantly reduced”, the “number of metastastic lesions in the lung” value ([3]; 43.6 mg/kg intraperitoneally every other day for three weeks) is reported as “significantly reduced” and the “β-casein mRNA expression level in the lung” value [3] is reported as “significantly inhibited”.

Work on Cc1cccc(-c2[nH]c(Cc3cccc(C#N)c3)nc2-c2ccc3ncnn3c2)n1 [Example 145, 3-((4-([1,2,4]triazolo[1,5-a]pyridin-6-yl)-5-(6-methylpyridin-2-yl)-1H-imidazol-2-yl)methyl)benzonitrile] yielded an IC50 [4] of 12.4 nM.

For Cc1cccc(-c2[nH]c(Cc3cccc(C(N)=O)c3)nc2-c2ccc3ncnn3c2)n1 [Example 147, 3-((4-([1,2,4]triazolo[1,5-a]pyridin-6-yl)-5-(6-methylpyridin-2-yl)-1H-imidazol-2-yl)methyl)benzamide], the IC50 [4] was 40 nM.

Work on Cc1cccc(-c2[nH]c(COc3ccccc3)nc2-c2ccc3ncnn3c2)n1 [Example 148, 6-(5-(6-methylpyridin-2-yl)-2-(phenoxymethyl)-1H-imidazol-4-yl)-[1,2,4]triazolo[1,5-a]pyridine] yielded an IC50 [4] of 13.1 nM.

Compound Cc1cccc(-c2[nH]c(COc3ccccc3F)nc2-c2ccc3ncnn3c2)n1 [Example 149, 6-(2-((2-fluorophenoxy)methyl)-5-(6-methylpyridin-2-yl)-1H-imidazol-4-yl)-[1,2,4]triazolo[1,5-a]pyridine] has an IC50 [4] of 25.4 nM.

Cc1cccc(-c2[nH]c(COc3cccc(C#N)c3)nc2-c2ccc3ncnn3c2)n1 [Example 150, 3-((4-([1,2,4]triazolo[1,5-a]pyridin-6-yl)-5-(6-methylpyridin-2-yl)-1H-imidazol-2-yl)methoxy)benzonitrile] gave an IC50 [4] of 23.9 nM.

For Cc1cccc(-c2[nH]c(COc3cccc(C(N)=O)c3)nc2-c2ccc3ncnn3c2)n1 [Example 151, 3-((4-([1,2,4]triazolo[1,5-a]pyridin-6-yl)-5-(6-methylpyridin-2-yl)-1H-imidazol-2-yl)methoxy)benzamide], the IC50 [4] was 22.5 nM.

Cc1cccc(-c2[nH]c(CSc3ccccc3)nc2-c2ccc3ncnn3c2)n1 [Example 152, 6-(5-(6-methylpyridin-2-yl)-2-(phenylthiomethyl)-1H-imidazol-4-yl)-[1,2,4]triazolo[1,5-a]pyridine] showed an IC50 [4] of 20.7 nM.

For Cc1cccc(-c2[nH]c(Cc3cccc(C(N)=O)c3)nc2-c2ccc3nccnc3c2)n1 [IN-1130], the penile curvature [5] is listed as “corrects”, the tunical fibrosis [5] is listed as “lessens” and the tumor volume [6] is listed as “dramatically reduces”. The “renal fibrosis induced by unilateral ureteral obstruction (UUO)” value [7] was “effectively suppresses” and the “experimental autoimmune encephalomyelitis (EAE)” value [8] was “ameliorates”.
